Source: publication PMC9505425, “Targeting of the Mitochondrial TET1 Protein by Pyrrolo[3,2-b]pyrrole Chelators” (International Journal of Molecular Sciences, 2022)
Where “and” joins values, the source holds several entries; their conditions need not be identical. Equal values may be shown once.

Tests used:
U-118 MG cells = assay: MTT cytotoxicity assay, U-118 MG; format: cell-based, human; conditions: 48 h
Experimental: (§1) The effects of the tested compounds 1–6 on HF-P4, U-118 MG, H1299, BT-20, and Caov-3 cell lines were evaluated by the MTT assay during 48 h treatment (Table 2 and Tables S2–S31). In all tested compounds, we recognized a difference in cytotoxicity between healthy cells (HF-P4) and cancer cell lines (BT-20, Caov-3, and H-1299). […] In the case of ovarian cancer, the authors discovered oncogenic and poor prognosis roles of TET1 in epithelial ovarian carcinoma (EOC). TET1 is believed to demethylate the epigenome and activate numerous oncogenic pathways in EOC. The aforementioned study presents a new mechanism where TET1 contributes to tumor development through collaboration with CK2α [21]. The overexpression of the TET1 protein was also found in triple negative breast cancer and was associated with an activation of PI3K/mTOR pathway and decreased overall survival.
(§2) A human glioblastoma cell line (U118-MG) and a human non-small-cell lung carcinoma cell line (H1299) were used for the cytotoxicity assay (MTT). Both cell lines were generously supplied by Dr. M. Masařik, PhD, Department of Pathological physiology, Masaryk University, Czech Republic. U118-MG cells were cultivated under standard conditions in Dulbecco’s modified Eagle’s medium (ATCC, Manassas, VA, USA) supplemented with 10% FBS and streptomycin (100 μg/mL) at 37 °C at a 5% CO2 atmosphere. H1299 cells were cultivated under standard conditions in RPMI 1640 (BioTech, Prague, Czech Republic) medium supplemented with 10% FBS and streptomycin (100 μg/mL) at 37 °C at a 5% CO2 atmosphere.
(§3) For the cytotoxicity assay, we used the following cell lines: human glioblastoma cell line U118-MG, human mammary gland/breast cell line BT-20, human ovary adenocarcinoma cell line Caov-3, and non-small-cell lung carcinoma H-1299. As previously mentioned, these cell lines contain a high level of the TET1 protein, which corresponds to a lower overall survival. In addition to these cell cultures, we used the human dermal fibroblast cell line HF-P4 as a healthy control. Determination of cytotoxicity was performed using the MTT [3-(4,5-dimethylthiazol-2-yl)-2,5-diphenyltetrazolium bromide] colorimetric assay. Viable cells from each cell line were cultured in 96-well plates (VWR, Stříbrná Skalice, Czech Republic) at a density of 1.0 × 10^5 cells per well and allowed to grow for 24 h in 200 μL of recommended medium. After a 1-day incubation, the medium was replaced with solutions of compounds 1–6 at concentration ranges of 0.1–20 μM. Each concentration was measured four times within one test, and the entire test was repeated three times. Tested compounds 1–6 were dissolved in DMSO and then diluted with corresponding medium to a final volume of 200 μL (maximum 1% DMSO). After 48 h exposure, cells were treated with 175 μL of MTT solution (P-LAB, Prague, Czech Republic) for 2 h. In the next step, MTT solution was removed, and 125 μL of DMSO (Penta, Prague, Czech Republic) was added to solubilize dark crystals of formazan formed in intact cells, and absorbance was measured at 570 nm by the enzyme-linked immunoabsorbent assay reader Infinite® 200 PRO (Tecan, Männedorf, Switzerland). The final DMSO concentration was smaller than 1% (v/v). The absorbance of untreated cells was considered 100%, and IC50 values were calculated by the GraphPad Prism 8 software. As a parameter for cytotoxicity, we used a concentration that inhibits 50% of cell growth (IC50).

H-1299 cells = assay: MTT cytotoxicity assay, H-1299; format: cell-based, human
Experimental: as §1, §2, §3

BT-20 cells = assay: MTT cytotoxicity assay, BT-20; format: cell-based, human
Experimental: as §1
The human mammary gland/breast cell line (BT-20), purchased from ATCC (BT-20 (ATCC® HTB-19™), Manassas, VA, USA), was used for the cytotoxicity assay (MTT), and BT-20 cells were cultivated under standard conditions in Eagle’s minimum essential medium (ATCC, Manassas, VA, USA) supplemented with 10% FBS and streptomycin (100 μg/mL) at 37 °C at a 5% CO2 atmosphere.
as §3

CCN(CC)c1ccc(/C=N/NC(=O)c2ccc(-c3cc4c(cc(-c5ccc(C(=O)N/N=C/c6ccc(N(CC)CC)cc6O)cc5)n4-c4ccc(C)cc4)n3-c3ccc(C)cc3)cc2)c(O)c1 [Compound 2]
melting point: 306 to 307 °C
viability at 0.1 µM (U-118 MG cells; Homo sapiens, U-118-MG, U-118 MG, 100 nM, repeats, read-out: Cell viability %): 82.5%
viability at 0.5 µM (U-118 MG cells; Homo sapiens, U-118-MG, U-118 MG, 500 nM, repeats, read-out: Cell viability %): 64%
viability at 0.75 µM (U-118 MG cells; Homo sapiens, U-118-MG, U-118 MG, 750 nM, repeats, read-out: Cell viability %): 70%
viability at 1 µM (U-118 MG cells; Homo sapiens, U-118-MG, U-118 MG, 1 uM, repeats, read-out: Cell viability %): 84.1%
viability at 2.5 µM (U-118 MG cells; Homo sapiens, U-118-MG, U-118 MG, 2.5 uM, repeats, read-out: Cell viability %): 70.7%
viability at 5 µM (U-118 MG cells; Homo sapiens, U-118-MG, U-118 MG, 5 uM, repeats, read-out: Cell viability %): 62.1%
viability at 7.5 µM (U-118 MG cells; Homo sapiens, U-118-MG, U-118 MG, 7.5 uM, repeats, read-out: Cell viability %): 66.3%
viability at 10 µM (U-118 MG cells; Homo sapiens, U-118-MG, U-118 MG, 10 uM, repeats, read-out: Cell viability %): 57.9%
viability at 15 µM (U-118 MG cells; Homo sapiens, U-118-MG, U-118 MG, 15 uM, repeats, read-out: Cell viability %): 51.1%
viability at 20 µM (U-118 MG cells; Homo sapiens, U-118-MG, U-118 MG, 20 uM, repeats, read-out: Cell viability %): 39.1%
IC50 (U-118 MG cells; Homo sapiens, U-118-MG, MTT): > 20 µM
Cell viability % (U-118 MG cells; U-118 MG, 100 nM, repeats, 0.1 µM): 87.05%
Cell viability % (U-118 MG cells; U-118 MG, 500 nM, repeats, 0.5 µM): 68.29% and 66.76%
Cell viability % (U-118 MG cells; U-118 MG, 750 nM, repeats, 0.75 µM): 77.02% and 67.38%
Cell viability % (U-118 MG cells; U-118 MG, 1 uM, repeats): 82.08% and 80.29%
Cell viability % (U-118 MG cells; U-118 MG, 2.5 uM, repeats): 64.2773% and 70.34%
Cell viability % (U-118 MG cells; U-118 MG, 5 uM, repeats): 65.5% and 62.23%
Cell viability % (U-118 MG cells; U-118 MG, 7.5 uM, repeats): 62.32% and 65.79%
Cell viability % (U-118 MG cells; U-118 MG, 10 uM, repeats): 65.41% and 61.07%
Cell viability % (U-118 MG cells; U-118 MG, 15 uM, repeats): 55.67% and 56.45%
Cell viability % (U-118 MG cells; U-118 MG, 20 uM, repeats): 44.6621% and 48.66%
Cell viability % (H-1299 cells; H-1299, 100 nM, 48 h, repeats, 0.1 µM): 61.37% and 71.3%
Cell viability % (H-1299 cells; H-1299, 500 nM, 48 h, repeats, 0.5 µM): 66.22% and 72.36%
Cell viability % (H-1299 cells; H-1299, 750 nM, 48 h, repeats, 0.75 µM): 70.74% and 81.49%
Cell viability % (H-1299 cells; H-1299, 1 uM, 48 h, repeats, 1 µM): 69.87% and 82.47%
Cell viability % (H-1299 cells; H-1299, 2.5 uM, 48 h, repeats, 2.5 µM): 66.9068% and 60.82%
Cell viability % (H-1299 cells; H-1299, 5 uM, 48 h, repeats, 5 µM): 53.26% and 57.69%
Cell viability % (H-1299 cells; H-1299, 7.5 uM, 48 h, repeats, 7.5 µM): 36.17% and 50.75%
Cell viability % (H-1299 cells; H-1299, 10 uM, 48 h, repeats, 10 µM): 38.48% and 47.35%
Cell viability % (H-1299 cells; H-1299, 15 uM, 48 h, repeats, 15 µM): 39.64% and 37.79%
Cell viability % (H-1299 cells; H-1299, 20 uM, 48 h, repeats, 20 µM): 32.04% and 28.82%
viability at 0.1 µM (H-1299 cells; Homo sapiens, NCI-H1299, 48 h, H-1299, 100 nM, repeats, read-out: Cell viability %): 77.6%
viability at 0.5 µM (H-1299 cells; Homo sapiens, NCI-H1299, 48 h, H-1299, 500 nM, repeats, read-out: Cell viability %): 71.5%
viability at 0.75 µM (H-1299 cells; Homo sapiens, NCI-H1299, 48 h, H-1299, 750 nM, repeats, read-out: Cell viability %): 74.1%
viability at 1 µM (H-1299 cells; Homo sapiens, NCI-H1299, 48 h, H-1299, 1 uM, repeats, read-out: Cell viability %): 72.4%
viability at 2.5 µM (H-1299 cells; Homo sapiens, NCI-H1299, 48 h, H-1299, 2.5 uM, repeats, read-out: Cell viability %): 73.2%
viability at 5 µM (H-1299 cells; Homo sapiens, NCI-H1299, 48 h, H-1299, 5 uM, repeats, read-out: Cell viability %): 53.2%
viability at 7.5 µM (H-1299 cells; Homo sapiens, NCI-H1299, 48 h, H-1299, 7.5 uM, repeats, read-out: Cell viability %): 42.3%
viability at 10 µM (H-1299 cells; Homo sapiens, NCI-H1299, 48 h, H-1299, 10 uM, repeats, read-out: Cell viability %): 45.5%
viability at 15 µM (H-1299 cells; Homo sapiens, NCI-H1299, 48 h, H-1299, 15 uM, repeats, read-out: Cell viability %): 39.8%
viability at 20 µM (H-1299 cells; Homo sapiens, NCI-H1299, 48 h, H-1299, 20 uM, repeats, read-out: Cell viability %): 28.6%
IC50 (H-1299 cells; Homo sapiens, NCI-H1299, MTT, 48 h): 8.94 µM
Cell viability % (BT-20 cells; BT-20, 100 nM, 48 h, repeats, 0.1 µM): 89.53% and 96.38% and 111.3369%
Cell viability % (BT-20 cells; BT-20, 500 nM, 48 h, repeats, 0.5 µM): 89.9% and 93.14%
Cell viability % (BT-20 cells; BT-20, 750 nM, 48 h, repeats, 0.75 µM): 105.3004% and 102.8159%
Cell viability % (BT-20 cells; BT-20, 1 uM, 48 h, repeats, 1 µM): 123.7041% and 111.0298% and 97.09%
Cell viability % (BT-20 cells; BT-20, 2.5 uM, 48 h, repeats, 2.5 µM): 100.513% and 96.3761%
Cell viability % (BT-20 cells; BT-20, 5 uM, 48 h, repeats, 5 µM): 79.33% and 68.98%
Cell viability % (BT-20 cells; BT-20, 7.5 uM, 48 h, repeats, 7.5 µM): 62.62% and 57%
Cell viability % (BT-20 cells; BT-20, 10 uM, 48 h, repeats, 10 µM): 57.5% and 51.13%
Cell viability % (BT-20 cells; BT-20, 15 uM, 48 h, repeats, 15 µM): 49.9% and 44.54%
Cell viability % (BT-20 cells; BT-20, 20 uM, 48 h, repeats, 20 µM): 24.61% and 32.37%
viability at 0.5 µM (BT-20 cells; Homo sapiens, BT-20, 48 h, BT-20, 500 nM, repeats, read-out: Cell viability %): 89.8%
viability at 0.75 µM (BT-20 cells; Homo sapiens, BT-20, 48 h, BT-20, 750 nM, repeats, read-out: Cell viability %): 88.9%
viability at 2.5 µM (BT-20 cells; Homo sapiens, BT-20, 48 h, BT-20, 2.5 uM, repeats, read-out: Cell viability %): 98.6%
viability at 5 µM (BT-20 cells; Homo sapiens, BT-20, 48 h, BT-20, 5 uM, repeats, read-out: Cell viability %): 73.8%
viability at 7.5 µM (BT-20 cells; Homo sapiens, BT-20, 48 h, BT-20, 7.5 uM, repeats, read-out: Cell viability %): 60.2%
viability at 10 µM (BT-20 cells; Homo sapiens, BT-20, 48 h, BT-20, 10 uM, repeats, read-out: Cell viability %): 45%
viability at 15 µM (BT-20 cells; Homo sapiens, BT-20, 48 h, BT-20, 15 uM, repeats, read-out: Cell viability %): 46.7%
viability at 20 µM (BT-20 cells; Homo sapiens, BT-20, 48 h, BT-20, 20 uM, repeats, read-out: Cell viability %): 28.3%
IC50 (BT-20 cells; Homo sapiens, BT-20, MTT, 48 h): 11.9 µM
